pIC50, pKd: −log10 of the molar value.
How the values were obtained:
Cyclic GMP-AMP synthase [1] = target: T1, Cyclic GMP-AMP synthase (Homo sapiens, UniProt Q8N884); test: Inhibition of N-terminal 6XHis-SUMO2 fused full length human cGAS (1 to 522 residues) expressed in […] incubated for 20 mins in presence of ATP by luminescence based analysis
THP-1 [2] = test: Cytotoxicity against human THP-1 cells assessed as cell growth inhibition; format: functional, cell-based
Cyclic GMP-AMP synthase [3] = target: T1, Cyclic GMP-AMP synthase; test: Inhibition of full-length human cGAS by fluorescence polarization
[4] = Cytotoxicity against human THP1-Dual KO-IFNAR2 cells assessed as cell growth inhibition; format: functional, cell-based
Cyclic GMP-AMP synthase [5] = target: T1, Cyclic GMP-AMP synthase; test: Antagonist activity at N-terminal 6XHis tagged human cGAS (155 to 522 residues) expressed in Escherichia coli BL21 DE3 Rosetta 2 in presence of ATP by luciferase based assay
[6] = Inhibition of RANTES secretion in mouse Trex1-knockout bone marrow-derived macrophages incubated for 24 hrs by celltiter-glo assay; format: functional, cell-based; settings: BMDM
[7] = Inhibition of MCP-1 secretion in mouse Trex1-knockout bone marrow-derived macrophages incubated for 24 hrs by celltiter-glo assay; format: functional, cell-based; settings: BMDM
Toll-like receptor 7 [8] = target: T2, Toll-like receptor 7 (Homo sapiens, UniProt Q9NYK1); test: Antagonist activity at TLR7 in human PBMC incubated for 3 hrs by TR-FRET assay; format: cell-based
T2 sequence (Q9NYK1 whole entry): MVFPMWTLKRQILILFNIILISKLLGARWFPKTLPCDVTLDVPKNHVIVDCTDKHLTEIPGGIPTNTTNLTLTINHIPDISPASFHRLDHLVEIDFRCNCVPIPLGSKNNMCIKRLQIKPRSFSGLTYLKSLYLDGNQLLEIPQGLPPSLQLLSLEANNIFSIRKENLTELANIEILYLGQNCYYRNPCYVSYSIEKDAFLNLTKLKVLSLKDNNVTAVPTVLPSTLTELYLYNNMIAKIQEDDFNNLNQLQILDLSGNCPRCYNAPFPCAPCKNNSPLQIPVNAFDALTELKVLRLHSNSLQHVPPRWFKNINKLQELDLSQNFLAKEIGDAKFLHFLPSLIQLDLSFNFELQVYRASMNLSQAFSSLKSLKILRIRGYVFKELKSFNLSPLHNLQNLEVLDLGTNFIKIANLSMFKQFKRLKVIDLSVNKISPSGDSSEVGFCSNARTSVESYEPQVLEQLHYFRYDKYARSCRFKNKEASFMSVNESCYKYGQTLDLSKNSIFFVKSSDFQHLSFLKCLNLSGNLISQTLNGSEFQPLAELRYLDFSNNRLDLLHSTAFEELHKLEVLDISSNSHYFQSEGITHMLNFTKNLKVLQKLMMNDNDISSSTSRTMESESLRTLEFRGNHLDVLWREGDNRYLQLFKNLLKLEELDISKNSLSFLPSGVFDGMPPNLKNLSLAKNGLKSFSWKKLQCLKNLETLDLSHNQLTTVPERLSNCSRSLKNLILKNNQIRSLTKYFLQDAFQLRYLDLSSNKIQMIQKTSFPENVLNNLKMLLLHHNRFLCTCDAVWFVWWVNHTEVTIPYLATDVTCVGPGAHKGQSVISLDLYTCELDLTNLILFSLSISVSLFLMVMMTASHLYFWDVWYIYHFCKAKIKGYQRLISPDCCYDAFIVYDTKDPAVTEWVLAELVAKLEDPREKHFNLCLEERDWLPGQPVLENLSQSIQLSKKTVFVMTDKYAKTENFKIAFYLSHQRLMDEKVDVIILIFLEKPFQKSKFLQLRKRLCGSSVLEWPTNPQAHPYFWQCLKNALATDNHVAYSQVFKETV

Toll-like receptor 9 [9] = target: T3, Toll-like receptor 9 (Homo sapiens, UniProt Q9NR96); test: Antagonist activity at TLR9 (unknown origin)
T3 sequence (Q9NR96 whole entry): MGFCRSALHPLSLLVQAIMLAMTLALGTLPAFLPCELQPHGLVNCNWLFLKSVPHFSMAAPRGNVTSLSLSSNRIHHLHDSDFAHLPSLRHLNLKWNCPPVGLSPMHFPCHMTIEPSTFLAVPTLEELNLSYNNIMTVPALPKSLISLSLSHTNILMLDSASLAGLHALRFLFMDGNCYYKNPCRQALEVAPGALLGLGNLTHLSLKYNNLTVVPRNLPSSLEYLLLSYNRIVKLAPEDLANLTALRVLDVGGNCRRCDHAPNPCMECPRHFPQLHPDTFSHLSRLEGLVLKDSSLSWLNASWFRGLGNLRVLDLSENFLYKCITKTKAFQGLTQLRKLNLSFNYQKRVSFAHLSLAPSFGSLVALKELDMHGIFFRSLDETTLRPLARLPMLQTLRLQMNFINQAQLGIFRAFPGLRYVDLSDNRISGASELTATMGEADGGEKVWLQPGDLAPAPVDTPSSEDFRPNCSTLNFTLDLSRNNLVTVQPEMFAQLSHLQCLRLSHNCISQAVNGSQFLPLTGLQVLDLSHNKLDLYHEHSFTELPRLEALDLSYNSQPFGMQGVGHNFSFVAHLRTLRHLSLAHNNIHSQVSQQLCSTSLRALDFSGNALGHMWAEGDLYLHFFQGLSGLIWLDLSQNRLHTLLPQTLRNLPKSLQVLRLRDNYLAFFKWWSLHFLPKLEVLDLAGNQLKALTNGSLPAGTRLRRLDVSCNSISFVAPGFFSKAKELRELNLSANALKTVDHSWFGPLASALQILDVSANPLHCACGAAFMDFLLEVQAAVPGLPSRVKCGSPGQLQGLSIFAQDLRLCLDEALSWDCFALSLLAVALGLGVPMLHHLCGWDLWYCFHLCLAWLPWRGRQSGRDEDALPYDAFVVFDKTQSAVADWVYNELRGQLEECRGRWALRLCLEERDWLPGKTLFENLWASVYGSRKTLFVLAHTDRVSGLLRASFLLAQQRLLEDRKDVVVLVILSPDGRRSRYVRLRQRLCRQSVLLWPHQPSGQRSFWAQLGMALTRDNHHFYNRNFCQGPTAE

Toll-like receptor 7 [10] = target: T2, Toll-like receptor 7; test: Antagonist activity at R848 stimulated TRL7 in HEK-Blue hTLR7 cells assessed as inhibition of NF kappa B/Ap-1 activation measured after 20 hrs by SEAP reporter assay; format: cell-based
Toll-like receptor 8 [11] = target: T4, Toll-like receptor 8 (Homo sapiens, UniProt Q9NR97); test: Antagonist activity at R848 stimulated TRL8 in HEK-Blue hTLR8 cells assessed as inhibition of NF kappa B/Ap-1 activation measured after 20 hrs by SEAP reporter assay; format: cell-based
T4 sequence (Q9NR97 whole entry): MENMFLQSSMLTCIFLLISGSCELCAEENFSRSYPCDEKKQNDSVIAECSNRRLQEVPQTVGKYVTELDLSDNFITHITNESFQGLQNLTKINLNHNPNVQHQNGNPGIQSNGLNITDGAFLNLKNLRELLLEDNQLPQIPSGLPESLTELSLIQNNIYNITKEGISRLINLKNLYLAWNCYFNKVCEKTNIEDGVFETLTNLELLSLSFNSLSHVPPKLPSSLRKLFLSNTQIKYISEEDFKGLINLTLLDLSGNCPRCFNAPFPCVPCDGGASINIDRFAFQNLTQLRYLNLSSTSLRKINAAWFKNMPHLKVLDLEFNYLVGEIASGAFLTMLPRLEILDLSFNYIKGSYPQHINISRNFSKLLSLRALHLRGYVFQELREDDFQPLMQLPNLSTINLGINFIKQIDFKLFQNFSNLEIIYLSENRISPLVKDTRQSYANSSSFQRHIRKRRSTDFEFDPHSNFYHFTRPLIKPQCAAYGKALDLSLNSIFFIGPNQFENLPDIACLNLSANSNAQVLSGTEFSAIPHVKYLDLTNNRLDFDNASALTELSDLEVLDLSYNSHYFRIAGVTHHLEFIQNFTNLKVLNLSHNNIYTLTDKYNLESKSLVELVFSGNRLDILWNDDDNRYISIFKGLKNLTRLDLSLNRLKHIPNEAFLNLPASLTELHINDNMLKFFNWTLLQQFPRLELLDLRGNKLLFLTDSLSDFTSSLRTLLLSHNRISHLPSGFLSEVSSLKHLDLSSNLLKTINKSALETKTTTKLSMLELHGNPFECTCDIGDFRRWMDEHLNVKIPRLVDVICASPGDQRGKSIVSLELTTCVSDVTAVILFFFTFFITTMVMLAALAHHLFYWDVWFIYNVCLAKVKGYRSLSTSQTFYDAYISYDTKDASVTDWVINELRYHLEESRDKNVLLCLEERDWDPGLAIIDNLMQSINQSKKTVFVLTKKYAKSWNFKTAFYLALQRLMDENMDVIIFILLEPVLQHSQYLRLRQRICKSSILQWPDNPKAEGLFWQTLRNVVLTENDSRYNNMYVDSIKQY

Toll-like receptor 9 [12] = target: T3, Toll-like receptor 9; test: Antagonist activity at R848 stimulated TRL9 in HEK-Blue hTLR9 cells assessed as inhibition of NF kappa B/Ap-1 activation measured after 20 hrs by SEAP reporter assay; format: cell-based
RAW264.7 = test: Cytotoxicity against mouse RAW264.7 cells assessed as cell growth inhibition measured after 24 hrs by Celltiter-Glo assay; format: functional, cell-based; settings: RAW264.7, 24 h
THP-1 [13] = test: Cytotoxicity against human THP-1 cells assessed as cell growth inhibition measured after 24 hrs by Annexin-V staining based flow cytometry analysis; format: functional; settings: THP-1, 24 h
[14] = target: NACHT, LRR and PYD domains-containing protein 3 (Mus musculus, UniProt Q8R4B8); test: Inhibition of NLRP3 inflammasome activation in LPS-primed C57BL/6 mouse bone marrow derived macrophages incubated for 30 mins in presence of ATP by immunoblotting analysis; format: cell-based, Macrophage
[15] = target: Stimulator of interferon genes protein (Homo sapiens, UniProt Q86WV6); test: Binding affinity to wild-type human STING CTD (149 to 379 residues) expressed in Escherichia coli BL21 (DE3) assessed as dissociation constant by isothermal titration calorimetry assay
IMR-90 = test: Cytotoxicity against human IMR-90 cells assessed as inhibition of IFN-beta production by MTS assay; format: functional, cell-based
THP-1 [16] = test: Cytotoxicity against human THP-1 cells assessed as cell growth inhibition measured after 24 hrs by Celltiter-Glo assay; format: functional, cell-based; settings: THP-1, 24 h
Cyclic GMP-AMP synthase [17] = target: T1, Cyclic GMP-AMP synthase; test: Inhibition of cGAS expressed in human THP-1 cells assessed as reduction of IFN-beta expression by ELISA assay; format: cell-based
Toll-like receptor 8 [18] = target: T4, Toll-like receptor 8; test: Antagonist activity at R848 stimulated TRL8 overexpressed in HEK293 cells measured after 20 to 24 hrs by SEAP reporter assay; format: cell-based

T1 sequence (Q8N884 whole entry, the tested form may be a part): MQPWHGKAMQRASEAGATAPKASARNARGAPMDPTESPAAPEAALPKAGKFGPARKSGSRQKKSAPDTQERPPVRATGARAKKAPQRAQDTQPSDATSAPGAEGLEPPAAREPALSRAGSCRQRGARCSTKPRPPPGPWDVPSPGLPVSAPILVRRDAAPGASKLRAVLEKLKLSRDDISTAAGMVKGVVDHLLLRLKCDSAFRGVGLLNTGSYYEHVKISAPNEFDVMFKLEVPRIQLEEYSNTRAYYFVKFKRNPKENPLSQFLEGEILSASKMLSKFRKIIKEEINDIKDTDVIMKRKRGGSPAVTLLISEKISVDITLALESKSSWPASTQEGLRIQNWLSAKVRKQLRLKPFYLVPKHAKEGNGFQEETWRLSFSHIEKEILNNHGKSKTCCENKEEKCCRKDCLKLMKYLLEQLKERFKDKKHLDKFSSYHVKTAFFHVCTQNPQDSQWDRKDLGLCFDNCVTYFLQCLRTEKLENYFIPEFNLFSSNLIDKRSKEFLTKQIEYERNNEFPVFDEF
Chain of Stimulator of interferon genes protein (Q86WV6 whole entry, the tested form may be a part): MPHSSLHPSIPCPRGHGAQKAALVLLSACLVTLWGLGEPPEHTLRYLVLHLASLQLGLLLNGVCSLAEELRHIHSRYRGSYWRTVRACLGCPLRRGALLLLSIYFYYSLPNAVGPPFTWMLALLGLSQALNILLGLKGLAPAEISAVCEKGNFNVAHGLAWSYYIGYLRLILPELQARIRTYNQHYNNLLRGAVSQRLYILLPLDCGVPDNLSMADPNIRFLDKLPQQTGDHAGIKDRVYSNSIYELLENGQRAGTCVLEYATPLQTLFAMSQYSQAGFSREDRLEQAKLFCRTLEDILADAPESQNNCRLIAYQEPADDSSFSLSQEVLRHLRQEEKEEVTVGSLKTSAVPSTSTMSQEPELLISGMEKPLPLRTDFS
Chain of NACHT, LRR and PYD domains-containing protein 3 (Q8R4B8 whole entry, the tested form may be a part): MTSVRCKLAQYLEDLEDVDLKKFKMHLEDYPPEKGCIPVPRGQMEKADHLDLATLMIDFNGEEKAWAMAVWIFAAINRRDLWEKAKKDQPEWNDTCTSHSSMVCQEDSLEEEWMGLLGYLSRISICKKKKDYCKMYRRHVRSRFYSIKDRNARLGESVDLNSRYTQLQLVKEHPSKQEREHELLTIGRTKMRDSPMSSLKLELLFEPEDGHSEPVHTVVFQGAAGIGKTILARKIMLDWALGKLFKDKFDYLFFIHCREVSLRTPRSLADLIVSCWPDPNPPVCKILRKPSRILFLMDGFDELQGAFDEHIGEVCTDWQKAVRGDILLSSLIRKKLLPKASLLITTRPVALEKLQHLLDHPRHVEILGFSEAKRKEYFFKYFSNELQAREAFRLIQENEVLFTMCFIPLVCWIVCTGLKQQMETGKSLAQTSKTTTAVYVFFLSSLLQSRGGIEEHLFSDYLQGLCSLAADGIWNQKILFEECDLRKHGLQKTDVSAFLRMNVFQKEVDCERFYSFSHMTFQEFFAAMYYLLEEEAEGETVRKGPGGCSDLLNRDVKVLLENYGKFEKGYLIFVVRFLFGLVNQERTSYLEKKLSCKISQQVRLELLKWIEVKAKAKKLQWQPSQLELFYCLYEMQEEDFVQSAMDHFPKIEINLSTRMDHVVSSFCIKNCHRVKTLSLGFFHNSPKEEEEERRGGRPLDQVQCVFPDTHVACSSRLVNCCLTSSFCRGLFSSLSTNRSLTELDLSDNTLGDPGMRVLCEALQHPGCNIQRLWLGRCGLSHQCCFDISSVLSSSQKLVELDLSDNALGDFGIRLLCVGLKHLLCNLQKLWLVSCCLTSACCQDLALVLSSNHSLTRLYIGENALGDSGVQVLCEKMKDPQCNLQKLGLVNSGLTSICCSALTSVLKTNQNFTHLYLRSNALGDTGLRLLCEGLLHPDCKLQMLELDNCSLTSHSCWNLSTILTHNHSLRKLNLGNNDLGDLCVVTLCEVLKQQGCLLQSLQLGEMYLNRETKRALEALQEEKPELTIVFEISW

Structure (SMILES): O=C(O)c1cccc(NC(=O)c2n[nH]c(-n3cnnc3)n2)c1
- pIC50 (Cyclic GMP-AMP synthase [1]): 4.88

Structure (SMILES): O=C(O)c1n[nH]c(-n2cnnc2)n1
- pIC50 (Cyclic GMP-AMP synthase [1]): 4.52

Structure (SMILES): Cc1[nH]n2c(-c3ccccc3)c(C#N)nc2c(=O)c1-c1cccc(Cl)c1
- pIC50 (THP-1 [2]): > 5.00
- pIC50 (Cyclic GMP-AMP synthase [3]): > 6.00

Structure (SMILES): O=C(Nc1c[nH]c2cc(F)c(F)cc12)c1ncn(Cc2ccc(C(F)(F)F)cc2)n1
- pIC50 [4]: 7.40

Structure (SMILES): COc1cccc2oc(-c3c(C#N)[nH]c4c(-c5ccccc5)c(C(F)(F)F)nn4c3=O)nc12
- pIC50 (Cyclic GMP-AMP synthase [5]): > 4.70
- pIC50 [6]: 5.90
- pIC50 [7]: 5.16

Structure (SMILES): CCCCc1ccc(NC(=O)Nc2c[nH]c3ncc(F)cc23)cc1
- pIC50 [4]: 7.40

Structure (SMILES): CCN(C)CC(=O)NC12CCC(Cn3nc(C)c4c3CCN(c3cc(C)nc5c3cnn5C)C4)(CC1)CC2
- pIC50 (Toll-like receptor 7 [8]): > 9.30

Structure (SMILES): CCCCc1ccc(S(N)(=O)=Nc2c[nH]c3ccccc23)cc1 (stereo not drawn)
- pIC50 [4]: 7.40

Structure (SMILES): CNCc1ccc(C(=O)Nc2nc(N3CCN(C4CCCC4)CC3)c3ncn(CCCN4CCCC4)c3n2)cc1
- pIC50 (Toll-like receptor 9 [9]): 8.30

Structure (SMILES): CCCCc1ccc(Nc2c(Nc3c[nH]c4ccccc34)c(=O)c2=O)cc1
- pIC50 [4]: 6.70

Structure (SMILES): Cc1cc(N2CCOC3(CN(C[C@H]4CN(c5ccc(C#N)c6ncccc56)C[C@@H](C)O4)C3)C2)cc(C)n1
- pIC50 (Toll-like receptor 7 [10]): > 8.52
- pIC50 (Toll-like receptor 8 [11]): > 8.52
- pIC50 (Toll-like receptor 9 [12]): > 7.49

Structure (SMILES): Nc1ccc(-c2cc(Cl)c(Cl)c3[nH]c4c(c23)CN(C(=O)CO)CC4)cn1
- pIC50 (RAW264.7): > 6.00

Structure (SMILES): COc1ccc2nc3cc(N)ccc3c(N(C)CCCN(C)c3ccncc3)c2c1
- pIC50 (THP-1 [13]): 4.85

Structure (SMILES): COc1ccc(/C=C/C(=O)Nc2ccccc2C(=O)O)cc1OC
- pIC50 [14]: 4.60

Structure (SMILES): CC[C@@H]1CC(=O)[C@@H]2[C@H](Cl)[C@H](Cl)CN2C(=O)[C@H](CC)NC(=O)C[C@H](c2ccccc2)NC(=O)[C@H](CO)NC1=O
- pKd [15]: 7.28
- pIC50 (IMR-90): 4.97

Structure (SMILES): COC(=O)[C@H](Cc1ccccc1)Nc1nc(NCc2nc3cc(F)ccc3[nH]2)nc(Nc2cccc(CN3CCN(C(=O)c4nccnc4O)CC3)c2)n1
- pIC50 (THP-1 [2]): 4.70

Structure (SMILES): O=C(Nc1cc(-c2ccccc2)ccn1)c1[nH]ncc1[N+](=O)[O-]
- pIC50 (THP-1 [16]): 5.58

Structure (SMILES): Cc1nc(N2C[C@@H](CC(=O)Nc3ccncc3)C[C@H]2C(=O)O)c2oc3ccccc3c2n1
- pIC50 (Cyclic GMP-AMP synthase [17]): 4.89

Structure (SMILES): COC12CNCC1CN(c1ccc3c(c1)CN1[C@H](C)CN(c4ccc(C#N)c5ncccc45)C[C@H]31)C2 (stereo partly drawn)
- pIC50 (Toll-like receptor 7 [10]): > 8.52
- pIC50 (Toll-like receptor 8 [11]): > 8.52
- pIC50 (Toll-like receptor 9 [12]): > 7.49

Structure (SMILES): Cc1cccc(-c2ccnc3c(C(N)=O)cnn23)c1
- pIC50 (Toll-like receptor 8 [18]): 7.17
